Residue numbers refer to the chain shown, from its start.
Tests used:
DHFR [1] = target: T1, DHFR (Rattus norvegicus, UniProt Q920D2); experiment: Cellular DHFR activity: BH4 formation from BH2, PC12 cells; format: cell-based; conditions: PC12 (rat pheochromocytoma)
T1 construct: endogenous in cells; host or cells: PC12
T1 sequence (Q920D2 1-187): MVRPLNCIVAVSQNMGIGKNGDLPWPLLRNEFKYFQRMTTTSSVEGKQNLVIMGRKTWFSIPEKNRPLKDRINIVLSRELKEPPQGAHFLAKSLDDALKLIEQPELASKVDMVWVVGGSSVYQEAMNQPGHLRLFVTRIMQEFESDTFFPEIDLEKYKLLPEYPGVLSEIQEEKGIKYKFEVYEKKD
Description: (§1) The growth medium was then removed and the cells incubated with growth medium containing 100 μM sepiapterin. […] BH2 and BH4 were then analyzed on a Jasco high-performance liquid chromatography system (Easton, MD) fitted with a Maxsil-10 C18 column (250 × 4 mm; Phenomenex, Torrance, CA). […] Cell viability following drug treatments was greater than 95 %.

DHFR [2] = target: T2, DHFR (Mus musculus, UniProt P00375); experiment: Cellular DHFR activity: BH4 formation from BH2, RAW264.7 cells; format: cell-based; conditions: RAW264.7 (mouse macrophage)
T2 construct: endogenous in cells; host or cells: RAW264.7
T2 sequence (P00375 1-187): T1 sequence (Q920D2 1-187) with L27P, Q85R, K99R, V115I, E155G, I170V
Description: as §1

[3] = system: BH4 formation in HaCaT cells; experiment: BH4 formation from sepiapterin in intact HaCaT cells (HPLC); format: cell-based, human; conditions: intact HaCaT cells; auranofin 2 h, then 100 μM sepiapterin 3 h; read-out: IC50, inhibition of BH4 formation in intact HaCaT cells
Description: as §1
(§2) Fig. 3. Effects of auranofin on BH2 and BH4 production in intact HaCaT cells treated with sepiapterin. HaCaT cells (~1 × 10^6 cells/well in 6 well culture plates) were incubated with control medium or medium containing increasing concentrations of auranofin for 2 h followed by 100 μM sepiapterin. After an additional 3 h, BH2 and BH4 were extracted from the cells and analyzed by HPLC with fluorescence detection. Left panel: Chromatograms showing BH2 and BH4 content of control cells and cells treated with Auranofin.
Fig. 6. […] Cells were treated with control medium or medium containing MTX (1 μM, 2 h), an inhibitor of DHFR, followed by 200 μM sepiapterin (upper panel) or BH2 (lower panel). After an additional 3 h incubation, cells were rinsed with PBS; BH2 and BH4 were then extracted and analyzed by HPLC as described in the Materials and Methods.

SPR [4] = target: T3, SPR (Homo sapiens, UniProt P35270); experiment: BH2 and BH4 production from sepiapterin in intact HaCaT cells (HPLC); format: cell-based; parameters: endogenous in cells; host or cells: HaCaT, Jurkat, BeWo, SKNMC, CX-1; conditions: auranofin 2 h, then 100 μM sepiapterin 3 h, read-out: IC50, inhibition of SPR (BH2+BH4 formation) in intact HaCaT cells
Description: as §1, §2

SPR [5] = target: T3, SPR; experiment: Chemical (menadione) redox cycling by recombinant SPR, superoxide anion formation; format: biochemical; parameters: made in house; conditions: acetylated cytochrome c reduction at 550 nm, pH 7.8, read-out: IC50, inhibition of chemical redox cycling (superoxide anion production) by recombinant SPR
Description: Sepiapterin reductase activity was assayed by measuring decreases in sepiapterin absorbance at 420 nm as described by Kato ([Kato, 1971]) with some modifications. Briefly, standard reaction mixes contained 100 mM potassium phosphate buffer, pH 7.0, 100 μM NADPH, 50 μM sepiapterin and 1 μg of enzyme protein in a final volume of 0.2 ml. Changes in absorbance of sepiapterin were monitored using a Spectramax M5 microplate reader (Molecular Devices, Sunnyvale, CA). […] Chemical redox cycling by SPR was assayed by measuring the formation of superoxide anion in the presence of menadione as previously described ([Yang et al., 2013]). […] Superoxide anion was measured spectrophotometrically by the reduction of acetylated cytochrome c at 550 nm. DHFR activity was measured as previously described ([Whitsett et al., 2013]) with some modifications. […] Enzyme activity was monitored by decreases in absorbance of NADPH at 340 nm using a microplate reader. […]
Fig. 5. […] SPR was measured in enzyme assays by decreases in sepiapterin absorbance at 420 nm as described in the Materials and Methods. DHFR activity in enzyme assays was measured by decreases in absorbance of NADPH at 340 nm. […] Redox cycling was measured spectrophotometrically by the reduction of acetylated cytochrome c at 550 nm during the formation of superoxide anion in enzyme assays in the presence of 100 μM menadione.

[6] = target: T4, sepiapterin reductase (SPR) (Homo sapiens, UniProt P35270); experiment: SPR enzyme activity in HaCaT cell lysates (BH2 formation from sepiapterin, HPLC); format: biochemical; conditions: BH2 formation from sepiapterin by HPLC, read-out: IC50, inhibition of SPR in HaCaT cell lysates
T4 construct: endogenous in cells; host or cells: HaCaT, Jurkat, BeWo, SKNMC, CX-1
Description: as §1
Fig. 4. Effects of auranofin on sepiapterin reductase (SPR) enzyme activity in HaCaT lysates. Lysates were assayed for SPR enzyme activity in control reaction mixes or reaction mixes containing increasing concentrations of auranofin (left panel). SPR activity was determined by decreases in BH2 formation from sepiapterin as measured by HPLC (right panel).

SPR [7] = target: T3, SPR; experiment: Cellular SPR activity: BH2 formation from sepiapterin in the presence of methotrexate, human cell lines; format: cell-based; parameters: endogenous in cells; host or cells: HaCaT, Jurkat, BeWo, SKNMC, CX-1

T3 sequence (P35270 whole entry): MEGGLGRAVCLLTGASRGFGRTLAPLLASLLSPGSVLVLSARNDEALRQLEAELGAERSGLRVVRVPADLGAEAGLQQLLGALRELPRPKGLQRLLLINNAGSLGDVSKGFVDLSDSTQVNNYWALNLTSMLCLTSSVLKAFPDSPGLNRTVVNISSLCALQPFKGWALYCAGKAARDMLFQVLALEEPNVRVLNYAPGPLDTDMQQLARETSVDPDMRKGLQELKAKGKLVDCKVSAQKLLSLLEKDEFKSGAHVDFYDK
T4 sequence (P35270 whole entry): as above

For `CC[PH](CC)(CC)[Au][S][C@@H]1O[C@H](COC(C)=O)[C@@H](OC(C)=O)[C@H](OC(C)=O)[C@H]1OC(C)=O` [auranofin, 2,3,4,6-tetra-O-acetyl-1-thio-β-D-glucopyranosato-S-triethyl phosphine gold], the IC50 (DHFR [1]) was 0.87 ± 0.09 µM, the IC50 (DHFR [2]) was 17.2 ± 0.63 µM and the IC50 [3] was 7.9 µM. The IC50 (SPR [4]) was 12.8 µM, the IC50 (SPR [5]) was 0.6 µM and the IC50 [6] was 1.8 µM. It also gave an IC50 (SPR [7]; BeWo (human choriocarcinoma), with methotrexate, read-out: SPR IC50, BeWo cells) of 8.9 ± 0.64 µM, an IC50 (SPR [7]; CX-1 (human colon adenocarcinoma), with methotrexate, read-out: SPR IC50, CX-1 cells) of 25.1 ± 1.03 µM and an IC50 (SPR [7]; HaCaT (human keratinocytes), with MTX 1 μM, auranofin 2 h, then 200 μM sepiapterin 3 h, listed as Auranofin, read-out: SPR IC50, HaCaT cells) of 10.7 µM. For the same compound, the IC50 (SPR [7]; HaCaT (human keratinocytes), with MTX 1 μM, auranofin 2 h, then 200 μM sepiapterin 3 h, read-out: SPR IC50, HaCaT cells) was 10.7 ± 0.9 µM, the “time of pretreatment to maximum inhibition of cellular SPR” value (SPR [7]; HaCaT cells with methotrexate, 20 μM auranofin) was 2 h and the IC50 (SPR [7]; Jurkat (human leukemia), with methotrexate, read-out: SPR IC50, Jurkat cells) was 7.2 ± 0.17 µM. It also gave an IC50 (SPR [7]; SKNMC (human neuroblastoma), with methotrexate, read-out: SPR IC50, SKNMC cells) of 17.7 ± 1.54 µM.
